# Results taken from patent US20160067209A1, “PTEROCARPAN COMPOUND OR PHARMACEUTICALLY ACCEPTABLE SALT THEREOF AND PHARMACEUTICAL COMPOSITION FOR PREVENTION OR TREATMENT OF METABOLIC DISEASE OR COMPLICATION THEREOF, OR FOR ANTIOXIDANT CONTAINING THE SAME AS AN ACTIVE INGREDIENT” (KOREA RESEARCH INSTITUTE OF BIOSCIENCE AND BIOTECHNOLOGY, priority 2010, published 2016).
# pIC50: −log10 of the molar value.
# Experiments:
# hACAT-1 = biological target: T1, hACAT-1 (Homo sapiens, UniProt P35610); test: hACAT inhibitory activity, microsome fraction of Hi5 cells, [1-14C] oleoyl-CoA substrate; format: biochemical; conditions: for inhibition at 100 µM: read-out: Inhibitory activity at 100 μM (%) hACAT1
# T1 construct: made in house; host or cells: Hi5 insect cells (baculovirus; virus produced in sf9), microsome fraction
# T1 sequence (P35610 1-550): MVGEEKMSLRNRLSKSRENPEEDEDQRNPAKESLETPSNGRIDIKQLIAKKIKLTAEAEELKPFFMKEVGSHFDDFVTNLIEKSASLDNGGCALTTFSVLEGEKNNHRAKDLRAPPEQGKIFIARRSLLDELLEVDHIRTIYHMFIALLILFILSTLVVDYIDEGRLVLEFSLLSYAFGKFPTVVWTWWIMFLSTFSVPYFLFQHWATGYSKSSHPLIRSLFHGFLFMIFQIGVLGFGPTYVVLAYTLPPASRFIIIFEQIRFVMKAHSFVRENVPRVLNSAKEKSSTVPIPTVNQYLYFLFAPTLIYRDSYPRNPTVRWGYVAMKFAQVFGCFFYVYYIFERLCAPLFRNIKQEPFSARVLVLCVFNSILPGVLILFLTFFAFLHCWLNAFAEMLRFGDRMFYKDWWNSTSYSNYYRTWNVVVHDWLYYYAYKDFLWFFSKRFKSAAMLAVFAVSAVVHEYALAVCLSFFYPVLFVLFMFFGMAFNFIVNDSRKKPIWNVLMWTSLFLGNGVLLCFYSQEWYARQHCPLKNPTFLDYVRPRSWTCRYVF
# Procedure: (§1) cDNA of each hACAT-1 and hACAT-2 obtained by human liver cDNA library screening was inserted into baculovirus vector, which was then introduced into the insect cell sf9 to produce target virus. The recombinant virus of each hACAT-1 and hACAT-2 was separated by plaque purification and then amplified three times to increase titer of viral stock.
# (§2) To separate microsome fractions from the cultured Hi5 cells over-expressing hACAT-1 and hACAT-2, centrifugation was performed at 500 rpm for 15 minutes. The collected cells were lysed by quick-freezing/quick-thawing in hypotonic buffer, followed by ultracentrifugation at 100,000 rpm for one hour. The obtained microsome fractions were suspended in hypotonic buffer to make the protein concentration to be 8 mg/ml, which was stored in −70° C. freezer until use.
# (§3) Human ACAT (hACAT) activity was measured by the method of Brecher & Chan (P. Brecher and C. Chan, Biochem. Biophys. Acta, 1980, 617: 458) with slight modification using [1-^14C] oleoyl-CoA (56.0 ρCi/μmol; Amersham) as a substrate. 10 μl of each of the pterocarpan compounds represented by Formula 2-Formula 5 obtained in Example 1 in dimethylsulfoxide (DMSO) was mixed with 4.0 μl of the microsome solution obtained in step 1, 20.0 μl a of assay buffer (0.5 M KH2PO4, 10 mM DTT, pH 7.4; Sigma), 15.0 μl of bovine serum albumin (BSA, stock solution conc. 40 mg/ml; Sigma), 2.0 μl of cholesterol (stock solution conc. 20 mg/ml; Sigma), and 41.0 μl of distilled water, followed by pre-reaction at 37° C. for 15 minutes. In this assay, the negative control was used the DMSO alone, and the positive control was used a known ACAT inhibitor, oleic acid anilide.
# (§4) Eight (8) μl of [1-^14C] oleoyl-CoA (0.05 μCi, final conc. 10.0 μM) was added to the above reaction mixture, followed by reaction at 37° C. for 30 minutes. The reaction was terminated by adding 1 ml of isopropanol:heptane mixed solution (4:1(v/v)). Six hundred (600) μl of heptane and 200 μl of 0.1 M KH2PO4 (pH 7.4) were added thereto and the reaction mixture was vortexed vigorously and centrifuged at 300 rpm for 5 minutes. The obtained upper phase (100 μl) was added in a scintillation vial, to which 4 ml of scintillation solution (Lipoluma, Lumac Co.) were added. Radioactivity of the upper phase was measured by 1450 Microbeta liquid scintillation counter (Wallacoy).
# (§5) hACAT activity was calculated based on the radioactivity, the amount of synthesized cholesteryl oleated, measured above and expressed as a defined unit, pico mole per 1 mg of protein for 1 minute (pico mole/minute/mg protein).
# hACAT-2 = biological target: T2, hACAT-2 (Homo sapiens, UniProt O75908); test: as above; format: biochemical; conditions: read-out: Inhibitory activity at 100 μM (%) hACAT2
# T2 construct: made in house; host or cells: Hi5 insect cells (baculovirus; virus produced in sf9), microsome fraction
# T2 sequence (O75908 1-522): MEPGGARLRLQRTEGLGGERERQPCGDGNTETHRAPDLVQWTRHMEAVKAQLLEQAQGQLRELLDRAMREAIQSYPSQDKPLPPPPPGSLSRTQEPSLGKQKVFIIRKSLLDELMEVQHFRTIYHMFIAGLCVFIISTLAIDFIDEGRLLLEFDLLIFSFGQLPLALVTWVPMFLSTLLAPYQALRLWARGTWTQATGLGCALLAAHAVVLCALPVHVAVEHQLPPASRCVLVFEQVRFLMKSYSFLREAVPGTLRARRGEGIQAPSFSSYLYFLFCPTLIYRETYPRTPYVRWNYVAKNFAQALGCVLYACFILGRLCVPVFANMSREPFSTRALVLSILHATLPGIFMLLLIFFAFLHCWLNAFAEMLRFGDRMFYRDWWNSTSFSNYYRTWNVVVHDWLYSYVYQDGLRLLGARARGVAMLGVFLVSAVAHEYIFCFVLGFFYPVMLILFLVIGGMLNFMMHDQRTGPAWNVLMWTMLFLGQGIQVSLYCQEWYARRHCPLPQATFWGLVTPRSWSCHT
# Procedure: as §1, §2, §3, §4, §5
# LDL = LDL anti-oxidative activity, Cu-mediated LDL-oxidation, TBA method; format: biochemical, human; conditions: CuSO4, 37° C., 4 hours, MDA by TBA; read-out: LDL-oxidation inhibitory activity (IC50)
# Procedure: Cu^2+ has been known to induce LDL-oxidation (Cu-mediated LDL-oxidation). In this invention, dialdehyde, the oxide of unsaturated fatty acid, generated during LDL-oxidation was measured by TBA (thiobarbituric acid) method to investigate the anti-oxidative activity of the pterocarpan compound isolated from soybean leaves (Packer, L. Ed. (1994) Methods in Enzymology Vol. 234, Oxygen radicals in biological systems Part D. Academic press, San Diego).
# Three hundred (300) ml of human plasma were centrifuged at 100,000×g for 24 hours to remove floating VLDL/chylomicron layer in upper part. The specific gravity of the remaining solution was adjusted to […], followed by re-centrifugation at 100,000×g for 24 hours, and 25 ml of the floating LDL (1.5-2.5 mg protein/ml) in upper layer was separated.
# Twenty (20) μl of the separated LDL (protein conc. 50-100 μg/ml) was mixed with 210 μl of 10 mM PBS, to which 10 μl of each of the pterocarpan compounds represented by Formula 2-Formula 5 of the present invention was added respectively.
# The pterocarpan compounds were dissolved in DMSO, which were further diluted properly for the experiment. In this assay, the negative control was used the DMSO only, while the positive control was used a known LDL-antioxidant, probucol.
# Ten (10) μl of 0.25 mM CuSO4 was added to the above reaction mixture, followed by reaction at 37° C. for 4 hours. The reaction was terminated by adding 1 ml of 20% trichloroacetic acid (TCA) solution. One (1) ml of 0.67% thiobarbituric acid (TBA) dissolved in 0.05 N NaOH solution was added thereto, followed by stirring for 10 seconds. Then, the reaction mixture was heated at 95° C. for 5 minutes to induce color development. The solution was cooled down with iced water and centrifuged at 3,000 rpm for 5 minutes to separate supernatant. The amount of malondialdehyde (MDA) generated by the color development was calculated by measuring optical density at 540 nm (OD540) with UV-VIS Spectrophotometer.
# PBS standard solution containing 0-10 nmol MDA was prepared by […] with tetramethoxypropane malonaldehyde bis (dimethylacetal) stock solution. Color development was induced with the standard solution, followed by measuring OD540. The generated MDA was quantified by using the standard curve in experiments with the pterocarpan compound of the present invention.
Compound,inhibition at 100 µM (hACAT-1) [%],inhibition at 100 µM (hACAT-2) [%],pIC50 (LDL),Inhibitory activity at 100 μM (%) hACAT1 (hACAT-1; 100 µM) [%]
"C=C(C)c1cc2cc3c(cc2o1)OC[C@@]1(O)c2ccc(O)cc2O[C@@H]31 [Formula 2, (6aS,11aS)-2-(pro-1-pene-2-yl)-6a,11a-dihydro-6H-benzofuro[3,2-c]furo[3,2-g]chromene-6a,9-diol]",29.7,22.9,4.37,
COc1ccc2c(c1)O[C@H]1c3c(cc(O)c(CC=C(C)C)c3OC)OC[C@@]21O [Formula 3],35.2,20.3,4.29,
"COc1cc(O)cc2oc(=O)c3c4ccc(O)cc4oc3c12 [Formula 4, isotrifoliol]",14.9,7.9,5.35,
"CC(C)=CCc1c(O)ccc2c1oc(=O)c1c3ccc(O)cc3oc21 [Formula 5, phaseol]",85.8,67.4,6.00,85.9
